Experimental data taken from patent publication US8198330B2, “Therapeutic or prophylactic agent for diabetes, obesity, dyslipidemia or metabolic syndrome comprising benzylamine derivative or pharmaceutically acceptable acid addition salt thereof” (Toray Industries, Inc., priority 2008, dated 2012).

System: anesthetized dog
Experiment: Effect on electrocardiogram of anesthetized dog
Type: in vivo
Conditions: for QTc: Fridericia
Experimental: A male beagle and a female beagle of 11 months of age were used in the test. A beagle was anesthetized by intravenous administration of thiopental sodium at 25 mg/kg, and fixed at the dorsal position under anesthesia by isoflurane inhalation with oxygen-nitrous oxide gas (1:1). Artificial respiration was carried out under the condition of 20 mL/kg and 15 times/minute. In measurement of the electrocardiogram, bipolar extremity leads (I, II and III) and augmented unipolar extremity leads (aVR, aVL and aVF) were recorded and QT interval determined by using an electrocardiogram analyzer for animals (α6000AX-D, Fukuda M-E Kogyo Co., Ltd.), as needle electrodes were placed on four extremities.
The QTc value was calculated according to the Fridericia's formula: QTc=QT/^3√{square root over ( )}(R−R). For observation of arrhythmia in electrocardiographic waveform during test, compression electrocardiogram was printed out from the small memory card by using a long-term electrocardiogram analyzer (HS1000 system, Fukuda M-E Kogyo Co., Ltd.). The samples of the compound of Example 1 were prepared by dissolving the compound in physiological saline at concentrations of 12 mg/mL, 4 mg/mL and 1.2 mg/mL. After confirmation of stabilization of the electrocardiogram, the sample was administered through a needle (22G) previously placed in the side forearm subcutaneous vein, by using an automatic injector (Harvard digital infusion pump MODEL-22, HARVARD […]) over a period of 10 minutes.
First, vehicle (physiological saline) was administered in an amount of 0.5 mL/kg and then, after 35 minutes, 1.2 mg/mL physiological saline solution of the compound of Example 1 was administered in an amount of 0.5 mL/kg. Additionally, 4 mg/mL or 12 mg/mL physiological saline solution of the compound of Example 1 was administered in an amount of 0.5 mL/kg at an interval of 65 minutes after administration. The QT interval and the QTc value were measured, in each administration above, 5 minutes before administration, immediately before start of administration, as well as 5, 10, 15 and 30 minutes after start of administration. Thus, the measured value 30 or 60 minutes after start of previous administration corresponds to the value 5 minutes before start of administration for the following application.

[1] = Individual 1 (male), 0.6 mg/kg/10 min i.v., 0 min (immediately before start of administration)
[2] = Individual 1 (male), 0.6 mg/kg/10 min i.v., 5 min after start of administration
[3] = Individual 1 (male), 0.6 mg/kg/10 min i.v., 10 min after start of administration
[4] = Individual 1 (male), 0.6 mg/kg/10 min i.v., 15 min after start of administration
[5] = Individual 1 (male), 0.6 mg/kg/10 min i.v., 30 min after start of administration
[6] = Individual 1 (male), 0.6 mg/kg/10 min i.v., 45 min after start of administration
[7] = Individual 1 (male), 0.6 mg/kg/10 min i.v., 60 min after start of administration
[8] = Individual 1 (male), 2 mg/kg/10 min i.v., 0 min (immediately before start of administration)
[9] = Individual 1 (male), 2 mg/kg/10 min i.v., 5 min after start of administration
[10] = Individual 1 (male), 2 mg/kg/10 min i.v., 10 min after start of administration
[11] = Individual 1 (male), 2 mg/kg/10 min i.v., 15 min after start of administration
[12] = Individual 1 (male), 2 mg/kg/10 min i.v., 30 min after start of administration
[13] = Individual 1 (male), 2 mg/kg/10 min i.v., 45 min after start of administration
[14] = Individual 1 (male), 2 mg/kg/10 min i.v., 60 min after start of administration
[15] = Individual 1 (male), 6 mg/kg/10 min i.v., 0 min (immediately before start of administration)
[16] = Individual 1 (male), 6 mg/kg/10 min i.v., 5 min after start of administration
[17] = Individual 1 (male), 6 mg/kg/10 min i.v., 10 min after start of administration
[18] = Individual 1 (male), 6 mg/kg/10 min i.v., 15 min after start of administration
[19] = Individual 1 (male), 6 mg/kg/10 min i.v., 30 min after start of administration
[20] = Individual 1 (male), 6 mg/kg/10 min i.v., 45 min after start of administration
[21] = Individual 1 (male), 6 mg/kg/10 min i.v., 60 min after start of administration
[22] = Individual 2 (female), 0.6 mg/kg/10 min i.v., 0 min (immediately before start of administration)
[23] = Individual 2 (female), 0.6 mg/kg/10 min i.v., 5 min after start of administration
[24] = Individual 2 (female), 0.6 mg/kg/10 min i.v., 10 min after start of administration
[25] = Individual 2 (female), 0.6 mg/kg/10 min i.v., 15 min after start of administration
[26] = Individual 2 (female), 0.6 mg/kg/10 min i.v., 30 min after start of administration
[27] = Individual 2 (female), 0.6 mg/kg/10 min i.v., 45 min after start of administration
[28] = Individual 2 (female), 0.6 mg/kg/10 min i.v., 60 min after start of administration
[29] = Individual 2 (female), 2 mg/kg/10 min i.v., 0 min (immediately before start of administration)
[30] = Individual 2 (female), 2 mg/kg/10 min i.v., 5 min after start of administration
[31] = Individual 2 (female), 2 mg/kg/10 min i.v., 10 min after start of administration
[32] = Individual 2 (female), 2 mg/kg/10 min i.v., 15 min after start of administration
[33] = Individual 2 (female), 2 mg/kg/10 min i.v., 30 min after start of administration
[34] = Individual 2 (female), 2 mg/kg/10 min i.v., 45 min after start of administration
[35] = Individual 2 (female), 2 mg/kg/10 min i.v., 60 min after start of administration
[36] = Individual 2 (female), 6 mg/kg/10 min i.v., 0 min (immediately before start of administration)
[37] = Individual 2 (female), 6 mg/kg/10 min i.v., 5 min after start of administration
[38] = Individual 2 (female), 6 mg/kg/10 min i.v., 10 min after start of administration
[39] = Individual 2 (female), 6 mg/kg/10 min i.v., 15 min after start of administration
[40] = Individual 2 (female), 6 mg/kg/10 min i.v., 30 min after start of administration
[41] = Individual 2 (female), 6 mg/kg/10 min i.v., 45 min after start of administration
[42] = Individual 2 (female), 6 mg/kg/10 min i.v., 60 min after start of administration
[43] = anesthetized beagle, i.v. 0.6, 2 and 6 mg/kg/10 min

COc1cc(CN[C@@H](C)[C@H](O)c2ccc(O)c(NS(C)(=O)=O)c2)cc(OC)c1 [Example 1, N-(5-((1R,2S)-2-(3,5-Dimethoxybenzylamino)-1-hydroxypropyl)-2-hydroxyphenyl)methanesulfonamide]
QT interval [1]: 241 ms
QTc [1]: 303 ms
QT interval [2]: 228 ms
QTc [2]: 299 ms
QT interval [3]: 210 ms
QTc [3]: 287 ms
QT interval [4]: 205 ms
QTc [4]: 280 ms
QT interval [5]: 213 ms
QTc [5]: 290 ms
QT interval [6]: 220 ms
QTc [6]: 296 ms
QT interval [7]: 221 ms
QTc [7]: 294 ms
QT interval [8]: 218 ms
QTc [8]: 293 ms
QT interval [9]: 203 ms
QTc [9]: 283 ms
QT interval [10]: 203 ms
QTc [10]: 283 ms
QT interval [11]: 213 ms
QTc [11]: 294 ms
QT interval [12]: 218 ms
QTc [12]: 297 ms
QT interval [13]: 221 ms
QTc [13]: 299 ms
QT interval [14]: 225 ms
QTc [14]: 304 ms
QT interval [15]: 220 ms
QTc [15]: 296 ms
QT interval [16]: 210 ms
QTc [16]: 292 ms
QT interval [17]: 211 ms
QTc [17]: 294 ms
QT interval [18]: 210 ms
QTc [18]: 291 ms
QT interval [19]: 211 ms
QTc [19]: 291 ms
QT interval [20]: 235 ms
QTc [20]: 320 ms
QT interval [21]: 226 ms
QTc [21]: 305 ms
QT interval [22]: 240 ms
QTc [22]: 293 ms
QT interval [23]: 243 ms
QTc [23]: 315 ms
QT interval [24]: 236 ms
QTc [24]: 310 ms
QT interval [25]: 223 ms
QTc [25]: 296 ms
QT interval [26]: 218 ms
QTc [26]: 297 ms
QT interval [27]: 211 ms
QTc [27]: 288 ms
QT interval [28]: 213 ms
QTc [28]: 292 ms
QT interval [29]: 215 ms
QTc [29]: 293 ms
QT interval [30]: 210 ms
QTc [30]: 292 ms
QT interval [31]: 210 ms
QTc [31]: 289 ms
QT interval [32]: 210 ms
QTc [32]: 288 ms
QT interval [33]: 225 ms
QTc [33]: 303 ms
QT interval [34]: 220 ms
QTc [34]: 298 ms
QT interval [35]: 221 ms
QTc [35]: 299 ms
QT interval [36]: 220 ms
QTc [36]: 296 ms
QT interval [37]: 215 ms
QTc [37]: 293 ms
QT interval [38]: 211 ms
QTc [38]: 289 ms
QT interval [39]: 215 ms
QTc [39]: 292 ms
QT interval [40]: 213 ms
QTc [40]: 289 ms
QT interval [41]: 226 ms
QTc [41]: 303 ms
QT interval [42]: 220 ms
QTc [42]: 294 ms
arrhythmia in electrocardiographic waveform [43]: no arrhythmia observed
prolongation of the QT interval [43]: did not cause prolongation of the QT interval
